This assay addresses 3',5'-cyclic-AMP phosphodiesterase 4D (Homo sapiens, UniProt Q08499). Put plainly: Inhibition of human PDE4D catalytic domain (86 to 413 residues) expressed in Escherichia coli BL21 (DE3) cells using [3H]cAMP as substrate measured after 30 mins by scintillation proximity assay.

Sequence of 3',5'-cyclic-AMP phosphodiesterase 4D (Q08499 whole entry, the tested form may be a part): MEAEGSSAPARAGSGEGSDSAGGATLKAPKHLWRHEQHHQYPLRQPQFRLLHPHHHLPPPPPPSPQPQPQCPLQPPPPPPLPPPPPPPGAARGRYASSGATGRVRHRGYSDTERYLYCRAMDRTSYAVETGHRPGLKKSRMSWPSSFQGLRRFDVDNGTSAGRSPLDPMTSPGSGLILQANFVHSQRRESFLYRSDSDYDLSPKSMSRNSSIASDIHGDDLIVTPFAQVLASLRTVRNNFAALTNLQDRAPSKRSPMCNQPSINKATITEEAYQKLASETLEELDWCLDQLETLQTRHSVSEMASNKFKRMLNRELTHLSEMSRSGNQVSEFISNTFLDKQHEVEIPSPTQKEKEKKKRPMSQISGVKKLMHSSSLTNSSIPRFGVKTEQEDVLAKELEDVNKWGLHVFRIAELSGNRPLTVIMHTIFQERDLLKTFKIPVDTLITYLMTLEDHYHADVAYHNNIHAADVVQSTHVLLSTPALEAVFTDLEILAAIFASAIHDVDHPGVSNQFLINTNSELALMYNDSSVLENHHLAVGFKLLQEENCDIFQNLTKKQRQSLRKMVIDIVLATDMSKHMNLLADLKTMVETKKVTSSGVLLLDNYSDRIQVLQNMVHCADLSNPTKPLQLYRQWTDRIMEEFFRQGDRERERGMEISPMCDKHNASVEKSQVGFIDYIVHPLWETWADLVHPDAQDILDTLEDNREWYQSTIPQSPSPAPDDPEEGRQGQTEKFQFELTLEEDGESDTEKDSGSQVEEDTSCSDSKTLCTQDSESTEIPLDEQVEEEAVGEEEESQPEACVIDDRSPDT

The IC50 is the midpoint of a concentration-inhibition curve. For `CC(C)C1=CC[C@H]2C(=CC[C@@H]3[C@]2(C)CCC[C@@]3(C)C(=O)O)C1=O`, it took 2.8 µM to reach half-maximal inhibition (IC50).

The compound `C=C(C)c1ccc2c(c1)CC[C@H]1[C@](C)(C(=O)O)CCC[C@]21C` displayed an IC50 of 3.3 µM.

Source of the values: ChEMBL document CHEMBL4610068, “Diterpenoids from the Root Bark of Pinus massoniana and Evaluation of Their Phosphodiesterase Type 4D Inhibitory Activity” (J Nat Prod, 2020).
